The values that follow come from a melting point compilation (Tetko et al.; mined from patent text by program, amines drawn as free bases though some values may be those of a salt).

Molecules are shown by their SMILES.

What is called melting point is the temperature, or range, at which the solid turns liquid.

`CCOC(=O)c1cc(=O)c2cccc(N3CCN(C)CC3)c2o1` had a melting point of 124 to 125 °C.
Take `CCOC(=O)c1[nH]c(I)c(C)c1CC`: the melting point fell in the range of 122 to 124 °C.
The result for `O=C(NO)c1ccc(CNC(=O)c2[nH]c(-c3ccccc3)cc2-c2cccc(Br)c2)cc1` reads 145 to 146 °C; that for `Nc1cccc(-c2ccc(CCN3CCN(C(=O)Cc4ccc(F)cc4)CC3)cc2)n1`, 143 to 145 °C; that for `Cc1ccc2c(c1)cc(C(=O)O)n2CC(=O)OC(C)(C)C`, 174 to 176 °C.
`COc1ccc(-n2cnc3c(OC)nc4ccccc4c32)cc1` had a melting point of 180 to 182 °C.
`O=C(O)c1c(Br)c(Br)cc2c1OCCO2` yielded a melting point of 212 °C.
Take `CCOC(=O)C1C(C)=NC(N2CCCC2)=C(C(=O)OC(C)C)C1c1ccccc1C(F)(F)F` (configuration not stated): the melting point worked out at 102 °C.
The molecule `c1ccc(-c2nc3c4ccccc4ccn3n2)cc1` showed a melting point of 157 to 158 °C.
Then `N#Cc1ccc(C(=O)Nc2cccc(-n3nc(C(F)(F)F)cc3C(F)(F)F)c2)cc1`, with 133 to 134 °C; and `CCCNC(=O)CP(=O)(O)O`, with 155 to 160 °C.
In turn, `O=C(O)C1=Cc2ccccc2OC1C(F)(F)F` (configuration not stated) gave a melting point of 152 to 153 °C.
Molecule `Cc1cccc(C(=O)NCN2CCN(c3ccccn3)CC2)c1` had a melting point of 141 to 143 °C.
`COC(=O)c1cn2c(-c3ccc(-c4ccccc4)cc3)csc2n1` gave a melting point of 186 to 188 °C.
The result for `Cc1ccsc1-c1nc(-c2c(F)cccc2Cl)nn1C` reads 80 to 82 °C; that for `Cn1cnc2c1ccn1c(=O)c(-c3ccc(OCc4ccccc4)cc3)cc(C(=O)O)c21`, 227 to 229 °C.
Molecule `CCC(Oc1c(Br)cc(-c2ccc(-c3c(Cc4ccccc4)oc4ccccc34)cc2)cc1Br)C(=O)O` (configuration not stated) returned a melting point of 79 to 80 °C.
In turn, `CC(C)(C)c1cc(CCc2ccccc2NC(=O)NCC(C)(C)c2cccc(F)c2)cc(C(C)(C)C)c1O` showed a melting point of 165 to 166 °C.
As for `Clc1ccc(-c2csc(NCc3cnc(NCc4ccccc4)s3)n2)cc1`, the melting point is 105 to 106 °C.
The molecule `Nc1nc(-c2cc(Cl)ccc2Cl)nc(N2CCCCC2C(=O)O)n1` (configuration not stated) gave a melting point of 237 to 240 °C.
On to `Nc1ccc2c(c1)Sc1ccc(N)cc1S2`, for which the melting point lay within 185 to 186 °C.
Then `O=C(O)CCCCN(C1CCNCC1)S(=O)(=O)c1ccccc1`, with 115 to 120 °C; and `CCCCCCCCCCCCCCCCOc1coc(CO)cc1=O`, with 68 to 69.5 °C; and `CCC1(CC)NC(=O)Oc2ccc(-c3cccc(Cl)c3)cc21`, with 150 to 151 °C.
Then `CCOC(=O)c1ncc2[nH]c3ccc(C(=O)OCc4ccccc4)cc3c2c1CC`, with 212 to 215 °C; and `CCn1ccc(-c2ccc(C(=O)N3Cc4cccn4Cc4ccccc43)cc2)n1`, with 180 to 183 °C.
`Cc1ccc(C2=C(c3ccc(S(C)(=O)=O)cc3)OC(C)(C)C2=O)cc1` showed a melting point of 167 to 168 °C.
`N#Cc1cccc(CC(NC(=O)c2cc3cc(Cl)ccc3[nH]2)C(=O)N2CCSC2)c1` (configuration not stated): the melting point lay in the range of 183 to 184 °C.
On to `O=C1C(=Cc2cccs2)CCc2cc(OCCn3ccnc3)ccc21`, for which the melting point fell in the range of 137 to 138 °C.
The result for `Cc1ccnc(C(=O)c2[nH]c3ccc(Cl)cc3c2CC(=O)NCCO)c1` reads 196 °C; that for `CCCCc1ncc(/C=C(\Cc2cccs2)C(=O)O)n1Cc1ccc(C(=O)OC)cc1`, 217 to 220 °C.
Molecule `O=C1Cc2c(ccc3ccccc23)C(c2ccccc2F)N1` (configuration not stated) displayed a melting point of 259 to 261 °C.
Then `COc1ccc(-c2[nH]cnc2-c2cc(OC)c(O)c(OC)c2)cc1O`, with 172 to 173 °C.
`O=C(O)c1ccc(I)nc1` yielded a melting point of 177 to 179 °C.
In turn, `Nc1ccc(C(=O)CCCCOCc2ccccc2)cc1` came in with a melting point of 72 °C.
The result for `CCOC(=O)C1CCNC1=O` (configuration not stated) reads 74.5 to 75.5 °C; that for `CC(C)Oc1cc(N2C(=O)C3COCCN3C2C(=O)O)c(F)cc1Cl` (configuration not stated), 59 to 61 °C; that for `COC(=O)[C@H](c1ccccc1Cl)N1CCc2sc(OC(=O)c3ccccc3)cc2C1`, 84 to 86 °C.
In the case of `O=c1ccn2c(n1)COc1ccc(Cl)cc1-2`, the melting point was 222 to 224 °C.
Turning to `CCOC(=O)c1ccc(N(C)C)cc1C(=O)OCC`, the melting point lay in the range of 62 to 64 °C.
As for `Cc1cc(C(=O)OC(C)(C)C)c(NC(=O)Nc2ccc(Oc3ccccc3)cc2)s1`, the melting point is 130 to 132 °C.
Take `CC(=O)NC1=CCc2ccccc21`: the melting point lay in the range of 137 to 138 °C.
Consider `CCOC(=O)CCCNc1ccccc1-c1ccccc1`, for which the melting point was 60 to 62 °C.
In the case of `Nc1c2c(nc3ccc(F)cc13)CCCC2`, the melting point lay within 229 to 230 °C.
As to `Cc1cc2cc(CN3CCCC3)cnc2cc1NC(=O)c1ccc(-c2ccco2)cc1`, the melting point turned out to be 154 °C.
In turn, `CCOC(=O)C(CBr)=NOC(=O)c1ccc(Cl)cc1` showed a melting point of 82 to 84.5 °C.
Take `CC(C)(C)OC(=O)NCCNC(=O)c1nc(Cl)sc1Br`: the melting point is 142 to 144 °C.
The molecule `CC(C)C(=O)OC1C(CO)OC(n2cnc3c(N)ncnc32)C1OC(=O)C(C)C` (configuration not stated) had a melting point of 207 to 208 °C.
The molecule `O=Cc1cc(-c2ncco2)ccc1Br` showed a melting point of 100 to 104 °C.
Turning to `CCOC(C)O[C@H]1C(=O)N(C(=O)OC(C)(C)C)[C@H]1c1ccccc1` (some centres not stated), the melting point lay in the range of 90 to 91 °C.
Then `Cn1nc(O)c(Cl)c1Cl`, with 212 to 216 °C; and `OCc1csc(N(c2ccccc2)c2ccccc2)n1`, with 136 to 138 °C; and `COC(=O)c1c(-c2ccc(OC)cc2)ccc2ccccc12`, with 115 to 116 °C.
In turn, `Cc1ncsc1C(O)c1cccc(N)c1` (configuration not stated) displayed a melting point of 137 to 138 °C.
For `CCC(OC(=O)CO)c1ccc(Cl)c2nc3n(c12)CCCN3c1ccc(Cl)cc1Cl` (configuration not stated), the melting point is 191 to 193 °C.
In turn, `C#CCN1CCCc2ccc(OC(=O)Nc3ccccc3Br)cc21` gave a melting point of 105 °C.
`Nc1noc(C(F)(F)F)c1-c1ccccc1`: the melting point is 91.5 to 92 °C.
For the molecule `C=CCO[C@@H]1CC(C(=O)O)=C[C@@H](OC(C)C)[C@@H]1NC(C)=O`, the melting point fell in the range of 70 to 71 °C.
`O=C(c1ccccc1C(c1ccc(O)cc1)c1ccc(O)cc1)N1CCSCC1` showed a melting point of 259 to 261 °C.
`CC[C@H]1C(=O)N(S(=O)(=O)c2ccc3ccccc3c2)[C@H]2CCN(C(=O)OCc3ccccc3)[C@H]12` (relative stereo): the melting point is 156 °C.
With `CCOC(=O)N1CCN(C(=O)Cn2c(-c3ccc(Cl)cc3)nc3cccnc32)CC1`, the melting point was in the range of 184 to 186 °C.
With `CCCCCCCCCCCCN=C=O`, the melting point lay within 100 to 103 °C.
The result for `COC(=O)C(=CN(C)C)N(C)c1nc(-c2ccc(Br)cc2)cs1` reads 184 to 185 °C; that for `CC1(C)CCCC2(C)CC12/C=C/C(=O)N1CCN(C(N)=O)CC1` (configuration not stated), 166 to 168 °C.
Turning to `CC(C)(C)OC(=O)NN1CCNC1=O`, the melting point lay within 186 to 188 °C.
As to `CSCc1cnc2c([N+](=O)[O-])cccc2c1Cl`, the melting point fell in the range of 96 to 98 °C.
For the molecule `O=C(O)C1=CC2=C(C(=O)C1)N1C=CC=CC1=CS2`, the melting point turned out to be 222 °C.
Then `CSc1ccc(NC(=O)C2C(=O)N(c3ccccc3)N=C2C)cc1` (configuration not stated), with 196 to 199 °C; and `COc1ccc(N2CCN(c3c(C)c(C)c4c(c3C)C(O)(c3ccco3)C(C)(C)O4)CC2)cc1` (configuration not stated), with 111 to 112 °C; and `COC(=O)c1cc(N)c(C)s1`, with 90 to 91 °C.
In turn, `OCCCCNc1nnc(-c2ccc(F)c(F)c2Nc2ccc(I)cc2F)o1` had a melting point of 82 to 83 °C.
In turn, `CC(C)C[C@H](NC(=O)OCc1ccccc1)C(=O)N[C@@H](Cc1ccccc1)C(=O)CN(C)C` came in with a melting point of 81 to 82 °C.
The result for `COc1cc2c(cc1OC)-c1ccc(OC)c(OC)c1C2=O` reads 208 to 209 °C; that for `COC1CN(C(=O)c2cnn(C)c2C(=O)Nc2ccn3nc(-c4ccccc4)nc3c2)C1`, 269 to 270 °C.
The result for `NS(=O)(=O)c1ccc2nc(C(F)(F)F)[nH]c(=O)c2c1` reads 311 to 314 °C.
Molecule `CNS(=O)(=O)OCC(COc1ccccc1OC)OS(N)(=O)=O` (configuration not stated) yielded a melting point of 110 to 113 °C.
Turning to `CCOC(=O)N1Cc2sc3ncn(CCO)c(=O)c3c2C1`, the melting point lay in the range of 243 to 245 °C.
Consider `CC(=O)Oc1cc(C(C)C)ccc1C1(OC(C)=O)C(=O)c2cccc(N)c2C1=O` (configuration not stated), for which the melting point lay in the range of 148 to 151 °C.
`COc1cc(COc2nn(-c3ccccc3)cc2/C=C/C=O)ccc1OCc1nc(-c2ccco2)oc1C`: the melting point lay in the range of 134 to 135 °C.
Molecule `Fc1ccc(N2CCN(CCCN(c3ccccc3)c3ccccc3)CC2)cc1` came in with a melting point of 87 to 88 °C.
`CCNCCCC(O)c1ccc(NS(C)(=O)=O)cc1` (configuration not stated) returned a melting point of 174 to 176 °C.
Then `CC1(c2ccc(F)cc2)Cc2cc(OCC(=O)O)c(Cl)c(Cl)c2C1=O` (configuration not stated), with 150 to 156 °C; and `c1ccc(-c2nn3c(c2-c2ccc4nsnc4c2)CCC3)nc1`, with 184 to 186 °C.
Turning to `COC(=O)CCc1cc2nc(Cl)ccc2n1S(=O)(=O)c1cccc(OC(F)(F)F)c1`, the melting point was 102 °C.
Then `CCc1cc(Oc2cncc3sc(C(N)=O)cc23)ccc1Cl`, with 185 to 187 °C; and `CSc1nn(C(=O)NS(=O)(=O)c2ccccc2OC(F)(F)F)c(=O)n1N`, with 136 °C.
Take `O=C1NC(=O)c2cc(NC3CCCCC3)c(NC3CCCCC3)cc21`: the melting point was 170 to 175 °C.
In turn, `CSc1nc2cc(Cl)c(Cl)cc2n1C1OC(CO)C(O)C1O` (configuration not stated) yielded a melting point of 204 to 206 °C.
Turning to `Cc1oc(-c2ccccc2)nc1COc1ccc2c(c1)CCC(C=O)=C2`, the melting point fell in the range of 114 to 115 °C.
`CC#CCOc1ccc(S(=O)(=O)NC(CO)C(=O)OC)cc1` (configuration not stated): the melting point was 72 to 74 °C.
The result for `C=C(CCCC(=O)N1CCC[C@@H](C(=O)OC(C)(C)C)N1)C(=O)O` reads 86 to 88 °C; that for `Cc1ccc(NC(=O)N2C(=O)C3(CCCCC3)NC23CCCCC3)cc1`, 136 to 138 °C.
